Measured values reported in patent publication US7262185B2, “Benzazepine derivative, process for producing the same, and use” (Takeda Chemical Industries Ltd., priority 2001, dated 2007).

SMILES: CCCCOCCOc1ccc(-c2ccc3c(c2)C=C(C(=O)Nc2ccc(/C(Cc4nccn4CCC)=N/O)cc2)CCN3CC(C)C)cc1 [Compound 450, 7-[4-(2-butoxyethoxy)phenyl]-N-[4-((1E)-N-hydroxy-2-(1-propylimidazol-2-yl)ethaneimidoyl)phenyl]-1-isobutyl-2,3-dihydro-1H-1-benzazepine-4-carboxamide]
- melting point: 153.5 to 154.5 °C

SMILES: CCCCOCCOc1ccc(-c2ccc3c(c2)C=C(C(=O)Nc2ccc([C@H](O)c4ccccn4)cc2)CCN3C(=O)C(F)(F)F)cc1 [Compound 79, 7-[4-(2-butoxyethoxy)phenyl]-N-[4-[(S)-hydroxy(2-pyridyl)methyl]phenyl]-1-trifluoroacetyl-2,3-dihydro-1H-1-benzazepine-4-carboxamide]
- melting point: 100 to 102 °C

SMILES: CCCCOCCOc1ccc(-c2ccc3c(c2)C=C(C(=O)Nc2ccc([S+]([O-])CCc4nncn4CCC)cc2)CCN3CCC)cc1 (stereo not shown) [Compound 52, 7-[4-(2-butoxyethoxy)phenyl]-1-propyl-N-[4-[2-(4-propyl-4H-1,2,4-triazol-3-yl)ethylsulfinyl]phenyl]-2,3-dihydro-1H-1-benzazepine-4-carboxamide]
- melting point: 93 to 101 °C

SMILES: CCCCOCCOc1ccc(-c2ccc3c(c2)C=C(C(=O)Nc2ccc([C@H](O)c4ccccn4)cc2)CCN3S(C)(=O)=O)cc1 [Compound 93, 7-[4-(2-butoxyethoxy)phenyl]-N-[4-[(S)-hydroxy(2-pyridyl)methyl]phenyl]-1-methanesulfonyl-2,3-dihydro-1H-1-benzazepine-4-carboxamide]
- melting point: 158 to 160 °C

SMILES: CCCCOCCOc1ccc(-c2ccc3c(c2)C=C(C(=O)Nc2ccc([S+]([O-])Cc4ncnn4C)cc2)CCN3CC(C)C)cc1 (stereo not shown) [Compound 124, 7-[4-(2-butoxyethoxy)phenyl]-N-[4-(1-methyl-1H-1,2,4-triazol-5-ylmethylsulfinyl)phenyl]-1-isobutyl-2,3-dihydro-1H-1-benzazepine-4-carboxamide]
- melting point: 135 to 138 °C

SMILES: CCCCOCCOc1ccc(-c2ccc3c(c2)C=C(C(=O)Nc2ccc(S(=O)(=O)Cc4cncn4CC(N)=O)cc2)CCN3CC(C)C)cc1 [Compound 431, N-[4-[[[1-(2-amino-2-oxoethyl)-1H-imidazol-5-yl]methyl]sulfonyl]phenyl]-7-[4-(2-butoxyethoxy)phenyl]-1-isobutyl-2,3-dihydro-1H-1-benzazepine-4-carboxamide]
- melting point: 229 to 231 °C

SMILES: CCCCOCCOc1ccc(-c2ccc3c(c2)C=C(C(=O)Nc2ccc(S(=O)(=O)Cc4ncn(C)n4)cc2)CCN3CC(C)C)cc1 [Compound 127, 7-[4-(2-butoxyethoxy)phenyl]-1-isobutyl-N-[4-(1-methyl-1H-1,2,4-triazol-3-ylmethylsulfonyl)phenyl]-2,3-dihydro-1H-benzazepine-4-carboxamide]
- melting point: 205 to 208 °C

SMILES: CCCCOCCOc1ccc(-c2ccc3c(c2)C=C(C(=O)Nc2ccc([S+]([O-])Cc4c(C)nc5ccccn45)cc2)CCN3CCC)cc1 (stereo not shown) [Compound 165, 7-[4-(2-butoxyethoxy)phenyl]-N-[4-(2-methylimidazo[1,2-a]pyridin-3-ylmethylsulfinyl)phenyl]-1-propyl-2,3-dihydro-1H-benzazepine-4-carboxamide]
- melting point: 134 to 137 °C

SMILES: CCCCOCCOc1ccc(-c2ccc3c(c2)C=C(C(=O)Nc2ccc(C(O)c4cc(C)cc[n+]4[O-])c(OC)c2)CCN3CC(C)C)cc1 (stereo not shown) [Compound 10, 7-[4-(2-butoxyethoxy)phenyl]-N-[4-[hydroxy(4-methyl-1-oxidopyridin-2-yl)methyl]-3-methoxyphenyl]-1-isobutyl-2,3-dihydro-1H-1-benzazepine-4-carboxamide]
- melting point: 174 to 176 °C

SMILES: CCCCOCCOc1ccc(-c2ccc3c(c2)C=C(C(=O)Nc2ccc([S+]([O-])Cc4nnc(SC)n4CCC)cc2)CCN3CC(C)C)cc1 (stereo not shown) [Compound 149, 7-[4-(2-butoxyethoxy)phenyl]-1-isobutyl-N-[4-(5-methylthio-4-propyl-4H-1,2,4-triazol-3-ylmethylsulfinyl)phenyl]-2,3-dihydro-1H-benzazepine-4-carboxamide]
- melting point: 150 to 152 °C

SMILES: CCCCOCCOc1ccc(-c2ccc3c(c2)C=C(C(=O)Nc2ccc(Sc4cccc5nc(C)cn45)cc2)CCN3CC(C)C)cc1 [Compound 170, 7-[4-(2-butoxyethoxy)phenyl]-1-isobutyl-N-[4-(2-methylimidazo[1,2-a]pyridin-5-ylthio)phenyl]-2,3-dihydro-1H-benzazepine-4-carboxamide]
- melting point: 164 to 166 °C

SMILES: CCCCOCCOc1ccc(-c2ccc3c(c2)C=C(C(=O)Nc2ccc(C/C(=N/O)c4nccn4CCC)cc2)CCN3CC(C)C)cc1 [Compound 453, 7-[4-(2-butoxyethoxy)phenyl]-N-[4-((2Z)-2-(hydroxyimino)-2-(1-propylimidazol-2-yl)ethyl)phenyl]-1-isobutyl-2,3-dihydro-1H-1-benzazepine-4-carboxamide]
- melting point: 187.5 to 189.5 °C

SMILES: CCCCOCCOc1ccc(-c2ccc3c(c2)C=C(C(=O)Nc2ccc(C(O)c4cccc[n+]4[O-])c(Cl)c2)CCN3CC(C)C)cc1 (stereo not shown) [Compound 6, 7-[4-(2-butoxyethoxy)phenyl]-N-[3-chloro-4-[hydroxy(1-oxidopyridin-2-yl)methyl]phenyl]-1-isobutyl-2,3-dihydro-1H-1-benzazepine-4-carboxamide]
- melting point: 105 to 107 °C

SMILES: CCCCOCCOc1ccc(-c2ccc3c(c2)C=C(C(=O)Nc2ccc([S+]([O-])Cc4ncn(C)n4)cc2)CCN3CC(C)C)cc1 (stereo not shown) [Compound 126, 7-[4-(2-butoxyethoxy)phenyl]-1-isobutyl-N-[4-(1-methyl-1H-1,2,4-triazol-3-ylmethylsulfinyl)phenyl]-2,3-dihydro-1H-benzazepine-4-carboxamide]
- melting point: 112 to 114 °C

SMILES: CCCCOCCOc1ccc(-c2ccc3c(c2)C=C(C(=O)Nc2ccc(C(O)c4ccc(C)cn4)cc2)CCN3C(=O)C(F)(F)F)cc1 (stereo not shown) [Compound 103, 7-[4-(2-butoxyethoxy)phenyl]-N-[4-[hydroxy(5-methylpyridin-2-yl)methyl]phenyl]-1-trifluoroacetyl-2,3-dihydro-1H-1-benzazepine-4-carboxamide]
- melting point: 110 to 113 °C

SMILES: CCCCOCCOc1ccc(-c2ccc3c(c2)C=C(C(=O)Nc2ccc(CSc4nncs4)cc2)CCN3CC(C)C)cc1 [Compound 115, 7-[4-(2-butoxyethoxy)phenyl]-N-[4-(1,3,4-thiadiazol-2-ylthiomethyl)phenyl]-1-isobutyl-2,3-dihydro-1H-1-benzazepine-4-carboxamide]
- melting point: 77 to 79 °C

SMILES: CCCCOCCOc1ccc(-c2ccc3c(c2)C=C(C(=O)Nc2ccc4c(c2)nc([S+]([O-])Cc2cncn2CCC)n4C)CCN3CC(C)C)cc1 (stereo not shown) [Compound 445, 7-[4-(2-butoxyethoxy)phenyl]-1-isobutyl-N-[1-methyl-2-(((1-propylimidazol-5-yl)methyl)sulfinyl)benzimidazol-5-yl]-2,3-dihydro-1H-1-benzazepine-4-carboxamide]
- melting point: 149.5 to 151 °C

SMILES: CCCCOCCOc1ccc(-c2ccc3c(c2)C=C(C(=O)Nc2ccc(C(O)c4ncccc4OCCC)cc2)CCN3C(=O)C(F)(F)F)cc1 (stereo not shown) [Compound 111, 7-[4-(2-butoxyethoxy)phenyl]-N-[4-[hydroxy(3-propoxypyridin-2-yl)methyl]phenyl]-1-trifluoroacetyl-2,3-dihydro-1H-1-benzazepine-4-carboxamide]
- melting point: 154 to 157 °C

SMILES: CCCCOCCOc1ccc(-c2ccc3c(c2)C=C(C(=O)Nc2ccc(C[S+]([O-])c4nncn4C)cc2)CCN3CC(C)C)cc1 (stereo not shown) [Compound 118, 7-[4-(2-butoxyethoxy)phenyl]-N-[4-(4-methyl-4H-1,2,4-triazol-3-ylsulfinylmethyl)phenyl]-1-isobutyl-2,3-dihydro-1H-1-benzazepine-4-carboxamide]
- melting point: 87 to 89 °C

SMILES: CCCCOCCOc1ccc(-c2ccc3c(c2)C=C(C(=O)Nc2ccc([C@@H](O)c4ccccn4)cc2)CCN3C=O)cc1 [Compound 76, 7-[4-(2-butoxyethoxy)phenyl]-1-formyl-N-[4-[(R)-hydroxy(2-pyridyl)methyl]phenyl]-2,3-dihydro-1H-1-benzazepine-4-carboxamide]
- melting point: 110 to 112 °C

SMILES: CCCCOCCOc1ccc(-c2ccc3c(c2)C=C(C(=O)Nc2ccc(SCc4nccn4CCCC(=O)OCC)cc2)CCN3CC(C)C)cc1 [Compound 413, ethyl 4-[2-[[[4-[[[7-[4-(2-butoxyethoxy)phenyl]-1-isobutyl-2,3-dihydro-1H-1-benzazepin-4-yl]carbonyl]amino]phenyl]thio]methyl]-1H-imidazol-1-yl]butanoate]
- melting point: 103 to 104 °C

SMILES: CCCCOCCOc1ccc(-c2ccc3c(c2)C=C(C(=O)Nc2ccc([S+]([O-])Cc4ncon4)cc2)CCN3CC(C)C)cc1 (stereo not shown) [Compound 129, 7-[4-(2-butoxyethoxy)phenyl]-1-isobutyl-N-[4-(1,2,4-oxadiazol-3-ylmethylsulfinyl)phenyl]-2,3-dihydro-1H-benzazepine-4-carboxamide]
- melting point: 142 to 144 °C

SMILES: CCCCOCCOc1ccc(-c2ccc3c(c2)C=C(C(=O)Nc2ccc(C(O)c4cc(C)cc[n+]4[O-])cc2)CCN3)cc1 (stereo not shown) [Compound 1, 7-[4-(2-butoxyethoxy)phenyl]-N-[4-[hydroxy(4-methyl-1-oxidopyridin-2-yl)methyl]phenyl]-2,3-dihydro-1H-1-benzazepine-4-carboxamide]
- melting point: 198 to 201 °C (dec.)

SMILES: CCCCOCCOc1ccc(-c2ccc3c(c2)C=C(C(=O)Nc2ccc([S+]([O-])Cc4cncn4CC(N)=O)cc2)CCN3CC(C)C)cc1 (stereo not shown) [Compound 430, N-[4-[[[1-(2-amino-2-oxoethyl)-1H-imidazol-5-yl]methyl]sulfinyl]phenyl]-7-[4-(2-butoxyethoxy)phenyl]-1-isobutyl-2,3-dihydro-1H-1-benzazepine-4-carboxamide]
- melting point: 123 to 125 °C

SMILES: CCCCOCCOc1ccc(-c2ccc3c(c2)C=C(C(=O)Nc2ccc([S+]([O-])Cc4nnc(C)c(C)n4)cc2)CCN3CC(C)C)cc1 (stereo not shown) [Compound 37, 7-[4-(2-butoxyethoxy)phenyl]-N-[4-[(5,6-dimethyl-1,2,4-triazin-3-yl)methylsulfinyl]phenyl]-1-isobutyl-2,3-dihydro-1H-1-benzazepine-4-carboxamide]
- melting point: 178 to 183 °C (dec.)
